Measured values reported in article PMC9585082, “Structural insight into the ligand binding mechanism of aryl hydrocarbon receptor” (Nature Communications, 2022).

Tests used:
mAHR = target: T1, mAHR (Mus musculus, UniProt P30561); test: DRE luciferase reporter assay in HEK293T expressing mAHR (agonist at […]); format: cell-based
T1 construct: gene Ahr; full-length
T1 sequence (P30561 10-848): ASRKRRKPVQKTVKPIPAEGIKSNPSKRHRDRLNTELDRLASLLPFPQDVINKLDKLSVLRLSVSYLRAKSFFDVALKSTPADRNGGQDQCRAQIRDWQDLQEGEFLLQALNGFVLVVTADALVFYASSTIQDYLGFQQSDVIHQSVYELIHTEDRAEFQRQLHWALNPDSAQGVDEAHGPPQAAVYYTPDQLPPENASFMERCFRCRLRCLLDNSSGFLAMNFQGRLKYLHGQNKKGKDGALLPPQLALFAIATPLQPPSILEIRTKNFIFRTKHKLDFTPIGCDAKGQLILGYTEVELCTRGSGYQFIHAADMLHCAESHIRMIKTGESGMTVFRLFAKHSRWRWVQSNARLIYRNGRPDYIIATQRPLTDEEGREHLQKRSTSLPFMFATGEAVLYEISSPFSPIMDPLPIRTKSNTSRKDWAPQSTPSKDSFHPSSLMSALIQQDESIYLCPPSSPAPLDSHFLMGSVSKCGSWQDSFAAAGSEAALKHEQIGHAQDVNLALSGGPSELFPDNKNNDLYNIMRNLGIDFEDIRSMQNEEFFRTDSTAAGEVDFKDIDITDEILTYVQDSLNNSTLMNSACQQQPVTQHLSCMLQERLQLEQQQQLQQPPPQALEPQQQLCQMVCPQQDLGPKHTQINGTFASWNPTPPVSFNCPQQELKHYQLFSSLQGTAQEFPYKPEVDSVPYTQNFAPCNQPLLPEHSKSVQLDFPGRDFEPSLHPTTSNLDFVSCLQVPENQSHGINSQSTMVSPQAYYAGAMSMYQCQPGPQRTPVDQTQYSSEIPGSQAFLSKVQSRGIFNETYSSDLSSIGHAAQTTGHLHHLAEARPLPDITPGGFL
Source text: FICZ, βNF and BaP were supplied

dAHR PAS-B = target: T2, dAHR PAS-B (Drosophila melanogaster, UniProt O61543, M284C/Y336L); test: label-free MST; format: binding
T2 construct: gene ss; PAS-B domain (residues 264–381)
T2 sequence (O61543 entry or part of it M284C/Y336L): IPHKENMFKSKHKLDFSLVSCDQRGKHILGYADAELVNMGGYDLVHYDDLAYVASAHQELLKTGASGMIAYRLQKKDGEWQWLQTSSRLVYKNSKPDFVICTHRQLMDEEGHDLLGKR

SMILES | DRE luciferase reporter assay in HEK293T expressing mAHR (agonist at 200 nM) (mAHR) | DRE luciferase reporter assay in HEK293T expressing mAHR (agonist at 500 nM) (mAHR) | Kd (dAHR PAS-B) [nM]
c1ccc2c(c1)cc1ccc3cccc4ccc2c1c34 [BaP] | transactivation of mAHR in HEK293T cells in the presence or absence of agonists. FICZ, βNF and BaP were supplied |  | 
O=c1cc(-c2ccccc2)oc2ccc3ccccc3c12 [βNF] |  | transactivation of mAHR in HEK293T cells in the presence or absence of agonists. FICZ, βNF and BaP were supplied | ~400
O=Cc1c2[nH]c3ccccc3c2cc2[nH]c3ccccc3c12 [FICZ] | transactivation of mAHR in HEK293T cells in the presence or absence of agonists. FICZ, βNF and BaP were supplied |  | ~800
